Results published in patent publication US8420309B2, “Method of screening compounds using CALHM (FAM26C)” (The Feinstein for Medical Research, priority 2007, dated 2013).

System: CALHM1
Assay: CALHM1 N-glycosylation, western blot of transfected HEK293 cells
Assay type: cell-based, human
Settings: HEK293 cells transfected with Myc-CALHM1 for six hours, 10 μg/ml tunicamycin, anti-Myc WB
Experimental: Western blotting (WB) and immunoprecipitation (IP) assays. For WB, cells were washed with PBS and solubilized in ice-cold HEPES buffer (25 mM HEPES, pH 7.4, 150 mM NaCl, 1X Complete protease inhibitor cocktail, Roche) containing 1% SDS. Ten micrograms of extracts was analyzed by SDS-PAGE. A standard ECL detection procedure was then used. For multimerization analyses and IP, cells were harvested six hours after transfection with the indicated CALHM1 cDNAs. Cells were then solubilized for 2 h at 4° C. in HEPES buffer containing 1% Nonidet P-40. Cell extracts were pre-cleared by centrifugation at 10,000 rpm for 5 min. For multimerization analyses, cell extracts were analyzed by WB in the absence (non-reducing conditions) or presence of 5% β-mercaptoethanol (reducing conditions). For IP, supernatants were immunoprecipitated with immobilized anti-Myc antibody, as per supplier's instructions (ProFound Mammalian c-Myc Tag IP Kit, Pierce). Total extracts and immunoprecipitated proteins were then analyzed by WB.
CALHM1 deglycosylation. […] CALHM1-transfected HT-22 cells were solubilized and incubated for 16 h at 37° C. in digestion buffer (50 mM NaH2PO4, pH 7.4, 20 mM EDTA, 0.2% SDS, and 1% β-mercaptoethanol) in the absence or presence of PNGase F. Cell lysates were then analyzed by WB using anti-Myc antibody, as described above.

## tunicamycin
  appearance of the CALHM1 band of higher molecular weight (N-glycosylated form): completely inhibited
